Measurements as given in ChEMBL document CHEMBL3526141, “Characterization of human liver enzymes involved in the biotransformation of boceprevir, a hepatitis C virus protease inhibitor” (Drug Metab Dispos, 2011).

Experiments:
[1] = tested on: Liver cytosol; assay: Drug metabolism in human liver cytosol treated with 20 uM [14C]boceprevir assessed as IC50 for AKR inhibitor ibuprofen-mediated metabolite formation after 60 mins by LC-MS/MS/FSA method; assay type: ADME, tissue-based; conditions: 1 h
[2] = tested on: Liver cytosol; assay: Drug metabolism in human liver cytosol at 20 uM assessed as (1R,2S,5S)-N-((2S,3R)-4-amino-1-cyclobutyl-3-hydroxy-4-oxobutan-2-yl)-3-((S)-2-(3-tert-butylureido)-3,3-dimethylbutanoyl)-6,6-dimethyl-3-azabicyclo[3.1.0]hexane-2-carboxamide formation in presence of BNPP by LC-MS/MS/FSA method; assay type: ADME
[3] = tested on: Liver cytosol; assay: Drug metabolism in human liver cytosol at 20 uM assessed as (1R,2S,5S)-N-((2R,3R)-4-amino-1-cyclobutyl-3-hydroxy-4-oxobutan-2-yl)-3-((S)-2-(3-tert-butylureido)-3,3-dimethylbutanoyl)-6,6-dimethyl-3-azabicyclo[3.1.0]hexane-2-carboxamide formation in presence of BNPP by LC-MS/MS/FSA method; assay type: ADME
[4] = molecular target: Cytochrome P450 2D6 (Homo sapiens, UniProt P10635); assay: Drug metabolism assessed as human CYP2D6-mediated compound formation from 5 uM [14C]boceprevir after 120 mins by LC-MS/FSA method relative to total [14C]boceprevir; assay type: ADME; conditions: recombinant enzyme, 2 h
Sequence of Cytochrome P450 2D6 (P10635 whole entry): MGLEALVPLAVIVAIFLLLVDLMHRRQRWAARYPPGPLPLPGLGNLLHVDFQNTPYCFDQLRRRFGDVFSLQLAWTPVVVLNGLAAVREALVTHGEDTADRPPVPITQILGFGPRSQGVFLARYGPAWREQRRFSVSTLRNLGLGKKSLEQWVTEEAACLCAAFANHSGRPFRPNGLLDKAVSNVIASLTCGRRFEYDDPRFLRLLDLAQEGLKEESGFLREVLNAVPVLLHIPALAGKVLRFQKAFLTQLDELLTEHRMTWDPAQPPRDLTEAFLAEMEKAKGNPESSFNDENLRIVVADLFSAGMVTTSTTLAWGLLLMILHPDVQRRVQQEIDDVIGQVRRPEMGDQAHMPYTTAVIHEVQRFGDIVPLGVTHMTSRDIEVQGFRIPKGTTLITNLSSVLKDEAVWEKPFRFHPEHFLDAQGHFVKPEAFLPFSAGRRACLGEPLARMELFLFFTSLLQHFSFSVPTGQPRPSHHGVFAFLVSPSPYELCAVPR

[5] = molecular target: T1, Cytochrome P450 2B6 (Homo sapiens, UniProt P20813); assay: Drug metabolism assessed as human CYP2B6-mediated compound formation from 5 uM [14C]boceprevir after 120 mins by LC-MS/FSA method relative to total [14C]boceprevir; assay type: ADME; conditions: recombinant enzyme, 2 h
T1 sequence (P20813 whole entry): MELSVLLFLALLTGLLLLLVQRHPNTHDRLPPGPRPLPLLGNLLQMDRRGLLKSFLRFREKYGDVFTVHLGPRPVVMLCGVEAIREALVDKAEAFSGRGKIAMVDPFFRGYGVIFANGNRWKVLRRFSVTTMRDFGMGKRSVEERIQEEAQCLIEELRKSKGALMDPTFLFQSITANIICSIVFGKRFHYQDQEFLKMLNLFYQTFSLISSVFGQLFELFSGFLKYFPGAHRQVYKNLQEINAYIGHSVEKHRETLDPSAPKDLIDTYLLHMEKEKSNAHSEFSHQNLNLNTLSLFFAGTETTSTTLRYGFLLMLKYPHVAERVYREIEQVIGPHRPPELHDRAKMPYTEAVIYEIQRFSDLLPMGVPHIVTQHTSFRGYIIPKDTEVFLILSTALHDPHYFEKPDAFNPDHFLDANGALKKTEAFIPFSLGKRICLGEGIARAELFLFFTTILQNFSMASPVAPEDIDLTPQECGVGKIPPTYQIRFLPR

[6] = tested on: Plasma; assay: Drug metabolism in human plasma treated with [14C]boceprevir assessed as ratio of drug level by LC-MS/MS method relative to boceprevir; assay type: ADME, cell-free
[7] = Retention time of the compound by LC-MS/MS method; assay type: physicochemical
[8] = molecular target: Cytochrome P450 3A4 (Homo sapiens, UniProt P08684); assay: Drug metabolism assessed as human CYP3A4-mediated compound formation from 20 uM [14C]boceprevir after 120 mins by LC-MS/FSA method relative to total [14C]boceprevir; assay type: ADME; conditions: recombinant enzyme, 2 h
Sequence of Cytochrome P450 3A4 (P08684 whole entry): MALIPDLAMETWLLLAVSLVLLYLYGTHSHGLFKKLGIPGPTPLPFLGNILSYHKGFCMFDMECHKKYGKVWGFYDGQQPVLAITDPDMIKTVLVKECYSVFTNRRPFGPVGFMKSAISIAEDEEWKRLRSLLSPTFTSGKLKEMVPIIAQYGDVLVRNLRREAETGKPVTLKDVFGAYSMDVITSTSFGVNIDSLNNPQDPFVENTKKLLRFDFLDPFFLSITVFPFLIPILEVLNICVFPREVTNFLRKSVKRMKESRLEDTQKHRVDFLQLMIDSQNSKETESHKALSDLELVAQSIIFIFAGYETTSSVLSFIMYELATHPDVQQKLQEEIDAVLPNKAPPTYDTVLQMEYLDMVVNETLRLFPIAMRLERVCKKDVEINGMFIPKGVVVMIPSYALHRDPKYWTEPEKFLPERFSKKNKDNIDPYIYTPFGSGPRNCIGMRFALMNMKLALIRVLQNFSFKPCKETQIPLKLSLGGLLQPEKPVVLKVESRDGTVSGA

[9] = molecular target: Cytochrome P450 2C19 (Homo sapiens, UniProt P33261); assay: Drug metabolism assessed as human CYP2C19-mediated compound formation from 5 uM [14C]boceprevir after 120 mins by LC-MS/FSA method relative to total [14C]boceprevir; assay type: ADME; conditions: recombinant enzyme, 2 h
Sequence of Cytochrome P450 2C19 (P33261 whole entry): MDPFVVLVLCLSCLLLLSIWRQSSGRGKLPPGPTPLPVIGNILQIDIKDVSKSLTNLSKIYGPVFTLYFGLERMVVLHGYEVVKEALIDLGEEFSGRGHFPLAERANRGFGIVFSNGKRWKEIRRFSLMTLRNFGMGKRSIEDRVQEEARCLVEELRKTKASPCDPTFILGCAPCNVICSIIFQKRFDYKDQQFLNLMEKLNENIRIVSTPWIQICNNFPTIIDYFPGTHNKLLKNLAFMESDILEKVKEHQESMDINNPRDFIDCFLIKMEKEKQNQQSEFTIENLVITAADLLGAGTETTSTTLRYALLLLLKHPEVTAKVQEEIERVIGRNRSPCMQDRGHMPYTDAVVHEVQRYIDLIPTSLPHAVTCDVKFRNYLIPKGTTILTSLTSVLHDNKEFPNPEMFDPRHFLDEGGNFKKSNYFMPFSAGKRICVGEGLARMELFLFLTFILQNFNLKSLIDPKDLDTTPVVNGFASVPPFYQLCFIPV

[10] = molecular target: Cytochrome P450 3A5 (Homo sapiens, UniProt P20815); assay: Drug metabolism assessed as human CYP3A5-mediated compound formation from 20 uM [14C]boceprevir after 120 mins by LC-MS/FSA method relative to total [14C]boceprevir; assay type: ADME; conditions: recombinant enzyme, 2 h
Sequence of Cytochrome P450 3A5 (P20815 whole entry): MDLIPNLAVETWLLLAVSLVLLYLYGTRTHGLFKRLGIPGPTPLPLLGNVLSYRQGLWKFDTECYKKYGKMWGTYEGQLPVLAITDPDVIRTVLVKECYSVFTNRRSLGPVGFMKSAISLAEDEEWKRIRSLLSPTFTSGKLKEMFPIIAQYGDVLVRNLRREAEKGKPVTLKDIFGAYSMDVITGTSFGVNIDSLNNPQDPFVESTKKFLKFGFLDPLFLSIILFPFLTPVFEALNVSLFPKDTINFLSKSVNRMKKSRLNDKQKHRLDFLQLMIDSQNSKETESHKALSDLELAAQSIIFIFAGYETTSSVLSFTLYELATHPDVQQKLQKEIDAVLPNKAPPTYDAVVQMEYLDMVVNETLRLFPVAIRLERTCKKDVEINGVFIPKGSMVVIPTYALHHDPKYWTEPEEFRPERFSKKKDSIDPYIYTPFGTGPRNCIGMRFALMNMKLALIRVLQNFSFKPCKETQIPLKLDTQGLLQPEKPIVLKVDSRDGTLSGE

[11] = molecular target: T2, Cytochrome P450 1A2 (Homo sapiens, UniProt P05177); assay: (§1) Drug metabolism assessed as human […]-mediated compound formation from 5 uM [14C]boceprevir after 120 mins by LC-MS/FSA method relative to total [14C]boceprevir; assay type: ADME; conditions: recombinant enzyme, 2 h
T2 sequence (P05177 whole entry): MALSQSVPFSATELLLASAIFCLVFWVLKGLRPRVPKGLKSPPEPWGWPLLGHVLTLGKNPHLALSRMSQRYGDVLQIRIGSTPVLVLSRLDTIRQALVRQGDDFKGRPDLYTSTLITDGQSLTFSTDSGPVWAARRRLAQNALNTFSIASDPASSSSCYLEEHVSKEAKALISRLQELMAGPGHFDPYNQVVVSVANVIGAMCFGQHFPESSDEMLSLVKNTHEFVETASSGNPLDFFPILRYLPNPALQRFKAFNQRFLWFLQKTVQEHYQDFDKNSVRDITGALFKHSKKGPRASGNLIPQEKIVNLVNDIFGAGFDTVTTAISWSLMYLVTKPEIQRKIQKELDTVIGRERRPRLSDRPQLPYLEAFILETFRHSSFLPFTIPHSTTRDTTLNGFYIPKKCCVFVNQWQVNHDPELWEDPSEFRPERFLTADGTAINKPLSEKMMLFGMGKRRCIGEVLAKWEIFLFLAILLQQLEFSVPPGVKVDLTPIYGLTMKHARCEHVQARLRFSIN

[12] = molecular target: T3, Cytochrome P450 1A1 (Homo sapiens, UniProt P04798); assay: as §1; assay type: ADME; conditions: recombinant enzyme, 2 h
T3 sequence (P04798 whole entry): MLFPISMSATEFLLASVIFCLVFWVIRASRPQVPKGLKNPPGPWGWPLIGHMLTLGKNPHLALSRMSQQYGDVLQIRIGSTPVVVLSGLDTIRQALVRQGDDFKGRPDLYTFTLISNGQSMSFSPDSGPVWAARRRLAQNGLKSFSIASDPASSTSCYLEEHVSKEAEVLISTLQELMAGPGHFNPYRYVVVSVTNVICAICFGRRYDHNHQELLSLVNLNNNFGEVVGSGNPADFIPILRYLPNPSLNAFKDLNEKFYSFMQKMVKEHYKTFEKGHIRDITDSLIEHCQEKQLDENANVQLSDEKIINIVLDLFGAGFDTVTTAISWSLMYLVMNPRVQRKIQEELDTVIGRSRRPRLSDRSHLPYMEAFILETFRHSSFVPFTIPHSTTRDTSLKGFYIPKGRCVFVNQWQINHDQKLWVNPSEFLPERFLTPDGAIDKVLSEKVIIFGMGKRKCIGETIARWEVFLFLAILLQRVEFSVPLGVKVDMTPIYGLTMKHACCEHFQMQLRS

Row | IC50 [1] [µM] | Compound recovery [2] | Compound recovery [3] | Compound recovery [4] [%] | Compound recovery [5] [%] | Compound recovery [6] | Retention_time [7] [min] | Compound recovery ([8]; BLD = below limit of detection) | Compound recovery [9] [%] | Compound recovery ([10]; BLD = below limit of detection) | Compound recovery [11] [%] | Compound recovery [12] [%] | Compound recovery [8] [%] | Compound recovery [10] [%] | SMILES
1 | 412 | metabolite_not_detected | metabolite_not_detected |  |  |  |  |  |  |  |  |  |  |  | CC(C)(C)NC(=O)N[C@H](C(=O)N1C[C@H]2[C@@H]([C@H]1C(=O)NC(CC1CCC1)C(=O)C(N)=O)C2(C)C)C(C)(C)C (some centres undefined) [BOCEPREVIR]
2 | 412 |  |  | 0.56 | 0.9 | >= 50% | 40.1 | BLD | 0.38 | BLD | 0.34 | 0.57 |  |  | CC(C)(C)NC(=O)N[C@H](C(=O)N1C[C@H]2[C@@H]([C@H]1C(=O)N[C@@H](CC1CCC1)[C@@H](O)C(N)=O)C2(C)C)C(C)(C)C
3 |  | metabolite_not_detected | metabolite_not_detected | 31.66 | 33.77 | >= 50% | 44.6 |  | 30.71 |  | 31.72 | 33.4 | 18.98 | 19.67 | CC(C)(C)NC(=O)N[C@H](C(=O)N1C[C@H]2[C@@H]([C@H]1C(=O)N[C@H](CC1CCC1)C(=O)C(N)=O)C2(C)C)C(C)(C)C
